Source: EP0182608B1, “Polycyclic compounds, their preparation and formulations containing them” (priority 1984, dated 1986)

Tested on: P388/0 tumor cells
Experiment: Lymphocytic Leukemia P388/0 Test
Format: in vivo, CD2-F₁ mice
Settings: for LD₂₀: CD2-F₁ mice, intraperitoneally on days 1, 5 and 9; for 30 DAY Survivors: at the optimal dose, survivors out of 6 animals per dose level group; for T/C x 100% (Excluding 30 Day Survivors): ratio of median survival time treated/control at the optimal dose, i.p. days 1, 5, 9, criterion for activity T/C x 100 ≧120%
Text: Methods for evaluating the antitumor activity of these compounds are essentially those used in the Tumor Panel by the Development Therapeutics Program, Division of Cancer Treatment, National Cancer Institute, A. Goldin, et al., Methods in Cancer Research, Vol. XVI, p. 165, Academic Press (1979). Some modifications, in dose level and schedule have been made to increase the testing efficiency.
CD2-F₁ mice, of the same sex weighing within 20±3g, are used for this test. Control and test animals are injected intraperitoneally with a suspension of 10⁶ viable P388/0 tumor cells on day 0. In each test several dose levels which bracket the LD₂₀ for the compound are evaluated; each dose level group contains 6 animals. The test compounds are prepared either in physiologic saline containing 0.05% Tween 80 or distilled water containing 5% dextrose and are administered intraperitoneally on days, 1, 5, and 9 relative to tumor implant. Doses are on a mg/kg basis according to individual animals' body weights. the day of death for each animal is recorded, the median identified for each group and the ratios of median survival time for treated (T)/control (C) groups are calculated. The criterion for activity is T/C x 100 ≧120%.

| Compound | LD₂₀ | 30 DAY Survivors | T/C x 100% (Excluding 30 Day Survivors) |
| --- | --- | --- | --- |
| 2-Methyl-2-[[(7-methyl-7-H-benzo[c]carbazol-10-yl) methyl]amino-1,3-propanediol hydrochloride 3/10 hydrate [Example 4C] | 55 mg/kg | 6/6 | no deaths |
| CC(CO)(CO)NCc1cc2c3ccccc3sc2c2ccccc12 [Example 1, 2-((Benzo[b]naphtho [2,1-d]thiophen-5-ylmethyl)amino)-2-methyl-1,3-propanediol methanesulfonate] | 35 mg/kg | 1/6 | +210% |
| CC(CO)(CO)NCc1c2ccccc2cc2c1oc1ccccc12 [Example 2B, 2-((Benzo[b]naphtho[2,3-d]furan-6-ylmethyl)amino]2-methyl-1,3-propanediol methanesulfonate] | 125 mg/kg | 1/6 | +204% |
| CC(CO)(CO)NCc1cc2oc3ccccc3c2c2ccccc12 [Example 3B, 2-((Benzo[b]naphtho[1,2-d]furan-5-ylmethyl)amino)-2-methyl-1,3-propanediol methanesulfonate] | 10 mg/kg | 2/6 | +230% |
| CC(CO)(CO)NCc1cc2c3ccccc3oc2c2ccccc12 [Example 5B] | 100 mg/kg | 4/6 | +255% |
| CC(CO)(CO)NCc1cccc2cc3c(cc12)oc1ccccc13 [Example 6B, 2-[(Benzo[b]naphthol[2,3-d]furan-7-ylmethyl)amino]-2-methyl-1,3-propanediol methanesulphonate 1/4 hydrate] | 35 mg/kg | 0/6 | +210% |
